Experimental data taken from PMC3094704, “S-Petasin, the Main Sesquiterpene of Petasites formosanus, Inhibits Phosphodiesterase Activity and Suppresses Ovalbumin-Induced Airway Hyperresponsiveness” (Evidence-based Complementary and Alternative Medicine : eCAM, 2011).
Blank lines part the entries; values can stand above or below the compound they belong to.

Assays:
female BALB/c mice = test: Xylazine/ketamine-induced anesthesia; assay type: in vivo, mouse; conditions: 0.1–1 μmol/kg s.c., 15 min before anesthesia
Procedure: According to the method described by Robichaud et al. and modified by us, S-petasin (10–100 μmol/kg, s.c.) or rolipram (0.01–1 μmol/kg, s.c.), a reference drug, was injected into 8–12 week-old female BALB/c mice 1 h or 15 min, respectively, prior to an i.p. injection of xylazine (10 mg/kg)/ketamine (70 mg/kg). The vehicle (control) for S-petasin or for rolipram was a mixture of alcohol : DMSO : 30% HPβCD : saline (0.5 : 0.5 : 1 : 8 , v/v), or alcohol : DMSO : PEG 400 : saline (0.5 : 0.5 : 1 : 8, v/v), respectively. After loss of the righting reflex (i.e., when a mouse remained on its back and no longer spontaneously righted itself to a prone position), the duration of anesthesia was measured until its return as an endpoint.

PDE1 = test: Inhibition of PDE1 activity (two-step radioenzymatic assay); assay type: biochemical, guinea pig; conditions: mean ± SEM (n); read-out: IC50 on PDE isozyme 1
Procedure: Activities of PDE1–5, partially separated from guinea pig lungs and hearts according to the method described by Ko et al., were measured with a two-step procedure according to the method of Thompson and Appleman, using cAMP with [^3H]-cAMP or cGMP with [^3H]-cGMP as substrates. The enzyme pμreparation (25 μL) was incubated for 30 min at 37°C in a total assay volume of […] containing 50 mM Tris-HCl (pH 7.4), 3 mM MgCl2, 1 mM dithiothreitol, 0.05% BSA, 1 μM cAMP with 0.2 μCi [^3H]-cAMP as a substrate alone or in the presence of 0.1 units calmodulin with 10 μM CaCl2 or 5 μM cGMP, and 1 μM cGMP with 0.2 μCi [^3H]-cGMP as another substrate alone or in the presence of 0.1 units calmodulin with 10 μM CaCl2. In tests of enzyme inhibition, the reaction mixture contained 10 μL of vehicle or inhibitors, at various concentrations of S-petasin or selective PDE1–5 inhibitors, such as vinpocetin [22], EHNA [23], milrinone, Ro 20-1724 [25] and zaprinast, as reference drugs. The reagents and homogenate were mixed on ice, and the reaction was initiated by transferring the mixture to a water bath at 37°C. Following a 30-min incubation, the reaction was stopped by transferring the reaction vessel to a bath of boiling water for 3 min. After cooling on ice, 20 μL of a 1 mg/mL solution of C. atrox snake venom was added to the reaction mixture, and the mixture was incubated at 37°C for 10 min. […]

guinea pig trachea = conditions: cited from earlier work
[1] = tested on: cAMP-phosphodiesterase (PDE); parameters: method as in PMID 11345692; conditions: cited from earlier work

Compound: COc1ccc(C2CNC(=O)C2)cc1OC1CCCC1 (centres unmarked) [rolipram, reference compound]
Duration of xylazine/ketamine-induced anesthesia (female BALB/c mice): dose-dependently and significantly shortened

IC50 (PDE1): 36.5 ± 8.8 µM
Compound: CCOC(=O)C1=C[C@]2(CC)CCCN3CCc4c(n1c1ccccc41)[C@@H]32 [vinpocetin, Vinpocetine, reference compound]

Compound: S-isopetasin
IC50 (guinea pig trachea; precontracted by CCh and KCl, read-out: IC50 in relaxing guinea pig trachea): ~10 µM
Relaxing effect on guinea pig trachea (guinea pig trachea; precontracted by histamine and LT D4): almost no effect
Inhibition of cAMP-phosphodiesterase (PDE) activity [1]: not
